Reference: US20260125359A1, “HETEROARYL COMPOUNDS AS MULTI-TARGET PROTEIN KINASE INHIBITORS” (FUJIAN HAIXI PHARMACEUTICALS CO., LTD., priority 2023, published 2026)

Experiments:
DDR1 = DDR1 (Homo sapiens, UniProt Q08345); test: DDR1 in vitro kinase activity assay (LanthaScreen Eu-anti-GST antibody / Kinase Tracer 178); format: binding; details: for inhibition at 0.01 µM: compound 10 nM, read-out: DDR1 inhibition rate, 10 nM; for inhibition at 0.1 µM: compound 100 nM, read-out: DDR1 inhibition rate, 100 nM
Protocol: DDR1 in vitro Kinase Activity Assay:
• ENVISION (Perkinelmer, 2104) • White 384-well MicroPlate (Cat #264706, Nunc) • DDR1 (Cat #PV6047, Invitrogen) • 5× Kinase Buffer A (Cat #PV3189, Invitrogen) • Kinase Tracer 178 (Cat #PV5593, Invitrogen) • LanthaScreen® Eu-anti-GST Antibody (Cat #PV5594, Invitrogen)
The compounds to be tested were tested at two concentrations of 100 nM and 10 nM.
Kinase/Antibody Mixtures Preparation: Dilute Kinase/Antibody Mixtures with 1× Kinase Buffer to form 3× working solutions with final concentrations of 5 nM kinase and 2 nM Eu-Anti-GST Antibody, respectively.
Kinase Tracer 178 Preparation: Dilute Kinase Tracer 178 with 1× Kinase Buffer to make a 3× working solution with a final concentration of 10 nM.
After all reagents were prepared according to the methods described above, except for the enzyme, they were equilibrated to room temperature before starting the sample addition. • a) First, 3% DMSO solutions were prepared separately using the pre-prepared 1× kinase buffer (DMSO concentrations that were too high could affect the reaction, so the final concentration of DMSO was controlled at 1%). Then, the corresponding 3% DMSO solution for the enzyme was used to dilute the test compounds. Compounds were screened with two concentrations of 100 nM and 10 nM. Except for the control wells, 5 μL of the diluted test compound solution was added to the reaction wells, and 5 μL of the pre-prepared 3% DMSO solution was added to the control wells. • b) 5 μL of the pre-prepared Kinase/Antibody mixtures was added to all reaction wells except the negative control wells. For the negative control wells, 5 μL of 1× kinase buffer corresponding to the enzyme was added to make up the volume. • c) 5 μL of the pre-prepared Kinase Tracer 178 solution was added to all reaction wells. • d) The plate was sealed and mixed, incubated at room temperature for 1 hour, and the fluorescence signal was detected using the ENVISION (PerkinElmer) instrument (excitation at 340 nm, emission at 665 nm and 615 nm). The inhibition rate for each well was calculated based on the full-activity control wells and background signal wells, and the average value of the replicates was taken.

PDGFR-α = PDGFR-α (Homo sapiens, UniProt P16234); test: PDGFR-α in vitro kinase activity assay (HTRF kinEASE TK); format: biochemical; details: for inhibition at 0.01 µM: compound 10 nM, read-out: PDGFRα inhibition rate, 10 nM; for inhibition at 0.1 µM: compound 100 nM, read-out: PDGFRα inhibition rate, 100 nM
Description: (§1) CSF-1R, PDGFR-α, KDR (VEGFR2) and KIT in vitro Kinase Activity Assay:
(§2) • ENVISION (Perkinelmer, 2104) • White 384-well MicroPlate (Cat #264706, Nunc) • HTRF kinEASE TK kit main reagents (Cat #62TKOPEC, Cisbio) • TK-biotin substrate • Streptavidin-XL665 • TK Antibody-Cryptate • 5× Enzymatic buffer (5×KB) • Staphylococcal enterotoxin B (SEB) • HTRF Detection buffer • CSF-1R (Cat #PV3249, Invitrogen) • PDGFR-α (Cat #PV3811, Invitrogen) • KDR (Cat #PV3660, Invitrogen) • KIT (Cat #08-156, Carna) • ATP 10 mM (Cat #PV3227, Invitrogen) • DTT 1 M (Cat #D5545, Sigma) • MgCl2 1 M (Cat #M8266, Sigma) • MnCl2 1 M (Cat #244589, Sigma)
(§3) Dilute Substrate-TK and ATP to 5× of the reaction concentration using 1× Kinase Buffer.
(§4) Prepare the 5× enzyme working solution using 1× Kinase Buffer.
(§5) Prepare the 4×Sa-XL665 working solution using Detection Buffer.
(§6) Dilute TK-Ab-Cryptate 100 times using Detection Buffer to prepare the working solution.
(§7) After all reagents were prepared according to the methods described above, except for the enzyme, they were equilibrated to room temperature before starting the sample addition. • a) First, 2.5% DMSO solutions were prepared separately using the pre-prepared 1× kinase buffer (DMSO concentrations that were too high could affect the reaction, so the final concentration of DMSO was controlled at 1%). Then, the corresponding 2.5% DMSO solution for the enzyme was used to dilute the test compounds. Compounds were screened with two concentrations of 100 nM and 10 nM. Except for the control wells, 4 μL of the diluted test compound solution was added to the reaction wells, and 4 μL of the pre-prepared 2.5% DMSO solution was added to the control wells. • b) 2 μL of the pre-prepared TK-biotin substrate solution at the corresponding concentration for the kinase was added to all reaction wells. • c) 2 μL of the pre-prepared enzyme solution at the corresponding concentration was added to all reaction wells except the negative control wells. For the negative control wells, 2 μL of 1× kinase buffer corresponding to the enzyme was added to make up the volume. The plate was sealed with sealing film, mixed gently, and incubated at room temperature for 10 min to allow the compounds to fully interact with the enzyme. • d) 2 μL of the ATP solution at the corresponding concentration for the enzyme was added to all reaction wells to initiate the kinase reaction. ATP concentrations and reaction times for enzyme screening are shown in Table 26 • e) Five minutes before the end of the kinase reaction, the detection solution was prepared. The detection buffer from the kit was used to prepare detection solutions for Streptavidin-XL665 and TK antibody europium cryptate (1:100) at the appropriate concentrations for the two enzymes. • f) After the kinase reaction was completed, 5 μL of the diluted Streptavidin-XL665 solution was added to all reaction wells. After mixing, the diluted TK antibody europium cryptate detection solution was immediately added. • g) The plate was sealed and mixed, incubated at room temperature for 1 hour, and the fluorescence signal was detected using the ENVISION (PerkinElmer) instrument (excitation at 320 nm, emission at 665 nm and 615 nm). The inhibition rate for each well was calculated based on the full-activity control wells and background signal wells, and the average value of the replicates was taken.

KIT = KIT (Homo sapiens, UniProt P10721); test: KIT in vitro kinase activity assay (HTRF kinEASE TK); format: biochemical; details: for inhibition at 0.01 µM: compound 10 nM, read-out: KIT inhibition rate, 10 nM; for inhibition at 0.1 µM: compound 100 nM, read-out: KIT inhibition rate, 100 nM
Description: as §1, §2, §3, §4, §5, §6, §7

PDGFR-α, sequence (P16234 24-1089): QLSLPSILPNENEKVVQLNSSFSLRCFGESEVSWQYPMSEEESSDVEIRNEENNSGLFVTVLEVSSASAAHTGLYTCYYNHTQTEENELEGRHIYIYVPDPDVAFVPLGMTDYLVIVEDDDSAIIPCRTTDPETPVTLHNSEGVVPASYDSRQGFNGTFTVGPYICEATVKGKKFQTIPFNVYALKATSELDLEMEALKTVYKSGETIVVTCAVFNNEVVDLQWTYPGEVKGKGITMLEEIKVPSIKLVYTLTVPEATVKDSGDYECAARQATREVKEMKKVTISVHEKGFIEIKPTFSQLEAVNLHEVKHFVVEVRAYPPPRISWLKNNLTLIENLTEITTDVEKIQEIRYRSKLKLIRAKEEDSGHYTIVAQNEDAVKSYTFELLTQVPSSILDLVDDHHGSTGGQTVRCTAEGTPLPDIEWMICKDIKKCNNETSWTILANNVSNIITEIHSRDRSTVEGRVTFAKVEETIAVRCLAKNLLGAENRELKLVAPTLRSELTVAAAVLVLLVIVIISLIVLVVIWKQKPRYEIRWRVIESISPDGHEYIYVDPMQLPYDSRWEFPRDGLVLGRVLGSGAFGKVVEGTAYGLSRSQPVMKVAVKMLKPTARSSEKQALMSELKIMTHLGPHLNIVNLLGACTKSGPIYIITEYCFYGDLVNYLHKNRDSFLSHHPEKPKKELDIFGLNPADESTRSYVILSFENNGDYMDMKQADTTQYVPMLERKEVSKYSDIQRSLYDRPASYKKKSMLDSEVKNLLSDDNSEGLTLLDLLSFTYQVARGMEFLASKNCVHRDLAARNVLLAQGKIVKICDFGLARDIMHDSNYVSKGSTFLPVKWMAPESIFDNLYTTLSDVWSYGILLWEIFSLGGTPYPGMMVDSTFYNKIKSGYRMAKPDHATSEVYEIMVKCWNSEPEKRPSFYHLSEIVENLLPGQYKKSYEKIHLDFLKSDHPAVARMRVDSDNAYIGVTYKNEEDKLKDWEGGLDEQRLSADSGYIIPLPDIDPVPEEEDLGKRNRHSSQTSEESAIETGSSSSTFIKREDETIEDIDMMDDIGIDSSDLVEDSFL
DDR1, sequence (Q08345 19-913): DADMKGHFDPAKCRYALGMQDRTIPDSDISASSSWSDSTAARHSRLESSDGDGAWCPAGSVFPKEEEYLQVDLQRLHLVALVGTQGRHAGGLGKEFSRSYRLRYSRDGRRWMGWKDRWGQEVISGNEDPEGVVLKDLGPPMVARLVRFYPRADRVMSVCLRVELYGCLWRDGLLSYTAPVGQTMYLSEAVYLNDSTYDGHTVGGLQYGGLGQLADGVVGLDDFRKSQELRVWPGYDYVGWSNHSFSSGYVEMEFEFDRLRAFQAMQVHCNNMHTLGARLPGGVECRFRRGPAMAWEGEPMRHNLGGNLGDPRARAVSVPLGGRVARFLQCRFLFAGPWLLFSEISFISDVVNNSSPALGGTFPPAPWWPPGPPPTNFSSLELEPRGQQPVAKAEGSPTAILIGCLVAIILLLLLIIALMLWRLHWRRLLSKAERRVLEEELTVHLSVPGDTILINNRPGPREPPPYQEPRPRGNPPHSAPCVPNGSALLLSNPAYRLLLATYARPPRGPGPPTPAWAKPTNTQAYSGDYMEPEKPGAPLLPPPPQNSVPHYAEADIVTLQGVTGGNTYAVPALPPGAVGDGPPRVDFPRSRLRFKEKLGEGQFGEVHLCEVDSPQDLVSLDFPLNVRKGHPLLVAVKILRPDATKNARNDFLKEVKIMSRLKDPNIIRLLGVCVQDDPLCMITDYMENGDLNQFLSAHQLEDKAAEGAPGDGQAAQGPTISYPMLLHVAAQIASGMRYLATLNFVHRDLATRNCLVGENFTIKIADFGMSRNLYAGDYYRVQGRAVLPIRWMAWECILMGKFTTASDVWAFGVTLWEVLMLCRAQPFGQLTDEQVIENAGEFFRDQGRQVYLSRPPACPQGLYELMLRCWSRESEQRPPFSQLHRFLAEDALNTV
KIT, sequence (P10721 26-976): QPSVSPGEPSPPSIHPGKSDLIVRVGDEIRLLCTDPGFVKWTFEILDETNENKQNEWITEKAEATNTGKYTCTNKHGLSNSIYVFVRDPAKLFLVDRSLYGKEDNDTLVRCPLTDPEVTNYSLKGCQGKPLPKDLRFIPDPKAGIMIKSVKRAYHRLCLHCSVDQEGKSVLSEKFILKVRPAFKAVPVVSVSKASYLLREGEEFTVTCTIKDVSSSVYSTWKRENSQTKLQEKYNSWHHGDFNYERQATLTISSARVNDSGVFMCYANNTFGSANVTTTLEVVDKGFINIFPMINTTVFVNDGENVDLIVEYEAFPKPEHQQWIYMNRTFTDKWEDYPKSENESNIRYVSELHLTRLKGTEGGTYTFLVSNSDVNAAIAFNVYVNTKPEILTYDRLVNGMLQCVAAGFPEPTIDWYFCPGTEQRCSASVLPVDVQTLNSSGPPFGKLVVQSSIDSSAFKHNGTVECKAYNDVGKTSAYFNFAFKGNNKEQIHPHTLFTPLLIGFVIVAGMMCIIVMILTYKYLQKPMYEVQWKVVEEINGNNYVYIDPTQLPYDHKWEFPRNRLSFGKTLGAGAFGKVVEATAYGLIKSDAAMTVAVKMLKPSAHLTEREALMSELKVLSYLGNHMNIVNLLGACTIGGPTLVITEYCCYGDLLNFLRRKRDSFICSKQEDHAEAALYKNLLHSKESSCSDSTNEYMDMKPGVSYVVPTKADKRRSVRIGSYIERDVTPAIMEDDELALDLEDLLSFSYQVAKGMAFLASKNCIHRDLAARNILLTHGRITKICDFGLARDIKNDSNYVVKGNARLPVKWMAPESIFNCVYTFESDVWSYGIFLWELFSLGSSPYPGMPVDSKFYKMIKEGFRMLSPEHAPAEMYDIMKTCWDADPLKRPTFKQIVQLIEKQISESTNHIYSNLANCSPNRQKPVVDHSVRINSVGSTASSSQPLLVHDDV

SMILES | inhibition at 0.01 µM (DDR1) [%] | inhibition at 0.1 µM (DDR1) [%] | inhibition at 0.01 µM (PDGFR-α) [%] | inhibition at 0.1 µM (PDGFR-α) [%] | inhibition at 0.01 µM (KIT) [%] | inhibition at 0.1 µM (KIT) [%]
CN(c1cncc(-c2cnn(C)c2)c1)[C@H]1CCc2c(C(=O)Nc3cccc(C4CC4)c3)cccc21 [Compound 22a, (S)—N-(3-cyclopropylphenyl)-1-(methyl (5-(1-methyl-1H-pyrazol-4-yl)pyridin-3-yl)amino)-2,3-dihydro-1H-indene-4-carboxamide] | 32.4 | 86 | 62.9 | 60.5 | 5.8 | 27.2
Cn1cc(-c2cncc(N[C@H]3CCc4c(C(=O)Nc5nn(C)c6ccccc56)cccc43)n2)cn1 [Compound 27g, (S)—N-(1-methyl-1H-indazol-3-yl)-1-((6-(1-methyl-1H-pyrazol-4-yl)pyrazin-2-yl)amino)-2,3-dihydro-1H-indene-4-carboxamide] | 92.1 | 101 | 94.7 | 98.9 | 89.6 | 100
Cn1cc(-c2cncc(N[C@H]3CCc4c(Nc5cc(C(C)(C)C)on5)cccc43)c2)cn1 [Compound 41, (S)—N^4-(5-(tert-butyl)isoxazol-3-yl)-N^1-(5-(1-methyl-1H-pyrazol-4-yl)pyridin-3-yl)-2,3-dihydro-1H-indene-1,4-diamine] | 20.2 | 78.2 | 55.5 | 100 | 7.5 | 66.4
Cn1cc(-c2cncc(N[C@H]3CCc4c(Nc5noc(C(C)(C)C)n5)cccc43)c2)cn1 [Compound 42o] | 4.1 | 67.6 | 15.4 | 57.8 | 14.5 | 38.8
Cn1ncc2ncc(N[C@H]3CCc4c(C(=O)Nc5cccc(C6CC6)c5)cccc43)cc21 [Compound 73, (S)—N-(3-cyclopropylphenyl)-1-((1-methyl-1H-pyrazolo[4,3-b]pyridin-6-yl)amino)-2,3-dihydro-1H-indene-4-carboxamide] | 72.5 | 103 | 90 | 100 | 59.1 | 99.7
Cn1cc2ncc(N[C@H]3CCc4c(C(=O)Nc5nc(C6CC6)cs5)cccc43)cc2n1 [Compound 74h, (S)—N-(4-cyclopropylthiazol-2-yl)-1-((2-methyl-2H-pyrazolo[4,3-b]pyridin-6-yl)amino)-2,3-dihydro-1H-indene-4-carboxamide] | 57.2 | 99.9 | 29.3 | 94.8 | 35.3 | 94.9
Cn1ncc2ncc(O[C@H]3CCc4c(C(=O)Nc5cncc(Cl)c5)cccc43)cc21 [Compound 76ac, (S)—N-(5-chloropyridin-3-yl)-1-((1-methyl-1H-pyrazolo[4,3-b]pyridin-6-yl)oxy)-2,3-dihydro-1H-indene-4-carboxamide] | 72.5 | 103 | 13.7 | 53.1 | 12.6 | 54
Cn1cc2ncc(O[C@H]3CCc4c(C(=O)Nc5cncc(Cl)c5)cccc43)cc2n1 [Compound 76ai] | 94.2 | 99.6 | 37.8 | 89.3 | 39.6 | 79.1
Cn1cc2ncc(O[C@H]3CCc4c(C(=O)Nc5nn(C)c6ccccc56)cccc43)cc2n1 [Compound 76al] | 98 | 98.5 | 97.6 | 97.2 | 91.2 | 95.9
Cn1cc2ncc(O[C@H]3CCc4c(C(=O)Nc5nn(C)c6cccc(F)c56)cccc43)cc2n1 [Compound 76aw] | 64 | 93.6 | 88.5 | 102 | 56 | 92.4
Cc1cccc(NC(=O)c2cccc3c2CC[C@@H]3Oc2cnc3cn(C)nc3c2)n1 [Compound 76bd] | 21.2 | 69.7 | 32 | 85.7 | 5.6 | 31.4
CN(c1cnc2cn(C)nc2c1)[C@H]1CCc2c(C(=O)Nc3cncc(Cl)c3)cccc21 [Compound 80k] | 14.7 | 83.9 | 19 | 51.2 | 22 | 47.8
CN(c1cnc2cn(C)nc2c1)[C@H]1CCc2c(C(=O)Nc3nn(C)c4ccccc34)cccc21 [Compound 80l] | 75.1 | 97.9 | 69.1 | 96.9 | 69.9 | 104
Cn1ncc2ncc(N[C@H]3CCc4c(Nc5cc(C(C)(C)C)on5)cccc43)nc21 [Compound 86, (S)—N^4-(5-(tert-butyl)isoxazol-3-yl)-N1-(1-methyl-1H-pyrazolo[3,4-b]pyrazin-6-yl)-2,3-dihydro-1H-indene-1,4-diamine] | 20 | 98.4 | 26.8 | 96.5 | 23.4 | 82
